Laboratory results published in ChEMBL document CHEMBL3885861, “Open TG-GATES”.

Species on record: Rattus norvegicus
Experiment: Open TG-GATES - Regimen: Daily Repeat
Format: toxicity, organism-based, Sprague-Dawley
Design: regimen Daily Repeat, gender Male, age 6 weeks
Conditions: in vivo, po, route gavage; for APTT / Bas / Eos / Fbg / Hb / Ht / Lym / MCH / MCHC / MCV / Mono / Neu / PT / Plat / RBC / Ret / WBC: tissue Blood; for KIDNEY_L / KIDNEY_R / KIDNEY_TOTAL: tissue Kidney; for LIVER: tissue Liver; for A/G / ALP / ALT / AST / BUN / CRE / Ca / Cl / DBIL / GLC / IP / K / LDH / Na / PL / RALB / TBIL / TC / TG / TP / gamma-GTP: tissue Plasma
[1] = 0 mg/kg, 72 h, dose level Control, time 3 day
[2] = 0 mg/kg, […], dose level Control, time 7 day
[3] = 0 mg/kg, […], dose level Control, time 14 day
[4] = 0 mg/kg, […], dose level Control, time 28 day
[5] = 100 mg/kg, 72 h, dose level Low, time 3 day
[6] = 100 mg/kg, […], dose level Low, time 7 day
[7] = 100 mg/kg, […], dose level Low, time 14 day
[8] = 100 mg/kg, […], dose level Low, time 28 day

## C[C@H]1O[C@H](O[C@H]2[C@H](O)[C@@H](O)[C@@H](O[C@H]3[C@H](O)[C@@H](O)C(O)O[C@@H]3CO)O[C@@H]2CO)[C@H](O)[C@@H](O)[C@@H]1N[C@H]1C=C(CO)[C@@H](O)[C@H](O)[C@H]1O (some centres undefined) [ACARBOSE]
[1]
  TERMINAL_BW: 228.3 g
  APTT: 16.7 s
  Bas: 0%
  Eos: 1.2%
  Fbg: 274.6 mg/dL
  Hb: 13.7 g/dL
  Ht: 41.3%
  Lym: 73.2%
  MCH: 21.7 pg
  MCHC: 33.1%
  MCV: 65.4 fL
  Mono: 3.2%
  Neu: 21.4%
  PT: 13 s
  Plat: 129.5 x10_4/uL
  RBC: 632.2 x10_4/ul
  Ret: 7%
  WBC: 102.7 x10_2/uL
  KIDNEY_L: 1 g
  KIDNEY_R: 1 g
  KIDNEY_TOTAL: 2 g
  LIVER: 10.3 g
  A/G: 0.9
  ALP: 1816 IU/L
  ALT: 42.4 IU/L
  AST: 71 IU/L
  BUN: 14 mg/dL
  CRE: 0.2 mg/dL
  Ca: 10.8 mg/dL
  Cl: 104.2 meq/L
  DBIL: 0.006 mg/dL
  GLC: 173 mg/dL
  IP: 7.5 mg/dL
  K: 4 meq/L
  LDH: 86.2 IU/L
  Na: 140.6 meq/L
  PL: 144.8 mg/dL
  RALB: 2.6 g/dL
  TBIL: 0.054 mg/dL
  TC: 71.6 mg/dL
  TG: 99 mg/dL
  TP: 5.5 g/dL
  gamma-GTP: 1 IU/L
[2]
  TERMINAL_BW: 273.8 g
  APTT: 18 s
  Bas: 0.2%
  Eos: 0.8%
  Fbg: 296.6 mg/dL
  Hb: 13.9 g/dL
  Ht: 41.6%
  Lym: 77.2%
  MCH: 21.3 pg
  MCHC: 33.3%
  MCV: 63.9 fL
  Mono: 2.6%
  Neu: 18.6%
  PT: 12.8 s
  Plat: 129.4 x10_4/uL
  RBC: 652.4 x10_4/ul
  Ret: 6.5%
  WBC: 89.4 x10_2/uL
  KIDNEY_L: 1.1 g
  KIDNEY_R: 1.1 g
  KIDNEY_TOTAL: 2.3 g
  LIVER: 13.2 g
  A/G: 0.8
  ALP: 1472.4 IU/L
  ALT: 38.4 IU/L
  AST: 66.6 IU/L
  BUN: 16.4 mg/dL
  CRE: 0.2 mg/dL
  Ca: 11 mg/dL
  Cl: 103.6 meq/L
  DBIL: 0.004 mg/dL
  GLC: 173.8 mg/dL
  IP: 8.1 mg/dL
  K: 3.8 meq/L
  LDH: 83.8 IU/L
  Na: 142.4 meq/L
  PL: 160.4 mg/dL
  RALB: 2.7 g/dL
  TBIL: 0.052 mg/dL
  TC: 83.2 mg/dL
  TG: 115.6 mg/dL
  TP: 5.8 g/dL
  gamma-GTP: 1 IU/L
[3]
  TERMINAL_BW: 316.7 g
  APTT: 22.2 s
  Bas: 0%
  Eos: 0.8%
  Fbg: 287.8 mg/dL
  Hb: 14.6 g/dL
  Ht: 43.2%
  Lym: 76%
  MCH: 20.3 pg
  MCHC: 33.8%
  MCV: 60.1 fL
  Mono: 2%
  Neu: 20%
  PT: 13.1 s
  Plat: 124.4 x10_4/uL
  RBC: 720 x10_4/ul
  Ret: 4.4%
  WBC: 107.6 x10_2/uL
  KIDNEY_L: 1.1 g
  KIDNEY_R: 1.2 g
  KIDNEY_TOTAL: 2.3 g
  LIVER: 13.2 g
  A/G: 0.8
  ALP: 1741.6 IU/L
  ALT: 42.6 IU/L
  AST: 72.2 IU/L
  BUN: 16 mg/dL
  CRE: 0.2 mg/dL
  Ca: 10.6 mg/dL
  Cl: 105.8 meq/L
  DBIL: 0.014 mg/dL
  GLC: 188 mg/dL
  IP: 6.4 mg/dL
  K: 4.1 meq/L
  LDH: 74.6 IU/L
  Na: 142 meq/L
  PL: 161.4 mg/dL
  RALB: 2.7 g/dL
  TBIL: 0.048 mg/dL
  TC: 74.4 mg/dL
  TG: 182.4 mg/dL
  TP: 6 g/dL
  gamma-GTP: 1 IU/L
[4]
  TERMINAL_BW: 390.9 g
  APTT: 20.5 s
  Bas: 0%
  Eos: 1.6%
  Fbg: 283.4 mg/dL
  Hb: 15.9 g/dL
  Ht: 45.7%
  Lym: 79.6%
  MCH: 19.9 pg
  MCHC: 34.8%
  MCV: 57.2 fL
  Mono: 2%
  Neu: 16.2%
  PT: 13.3 s
  Plat: 103.4 x10_4/uL
  RBC: 799.4 x10_4/ul
  Ret: 2.2%
  WBC: 93.1 x10_2/uL
  KIDNEY_L: 1.4 g
  KIDNEY_R: 1.3 g
  KIDNEY_TOTAL: 2.7 g
  LIVER: 15 g
  A/G: 0.8
  ALP: 1131.6 IU/L
  ALT: 43.4 IU/L
  AST: 69.6 IU/L
  BUN: 17.2 mg/dL
  CRE: 0.2 mg/dL
  Ca: 10.8 mg/dL
  Cl: 104.4 meq/L
  DBIL: 0.014 mg/dL
  GLC: 184.8 mg/dL
  IP: 6.4 mg/dL
  K: 4.2 meq/L
  LDH: 121 IU/L
  Na: 141.6 meq/L
  PL: 146.6 mg/dL
  RALB: 2.8 g/dL
  TBIL: 0.056 mg/dL
  TC: 66.8 mg/dL
  TG: 158.2 mg/dL
  TP: 6.2 g/dL
  gamma-GTP: 1 IU/L
[5]
  TERMINAL_BW: 233.2 g
  APTT: 17.1 s
  Bas: 0%
  Eos: 1%
  Fbg: 279.2 mg/dL
  Hb: 13.2 g/dL
  Ht: 39.4%
  Lym: 79.4%
  MCH: 20.4 pg
  MCHC: 33.5%
  MCV: 61 fL
  Mono: 2.6%
  Neu: 15.4%
  PT: 13.3 s
  Plat: 126 x10_4/uL
  RBC: 646.8 x10_4/ul
  Ret: 6.7%
  WBC: 97.6 x10_2/uL
  KIDNEY_L: 1 g
  KIDNEY_R: 1 g
  KIDNEY_TOTAL: 2.1 g
  LIVER: 11.3 g
  A/G: 0.9
  ALP: 1544.2 IU/L
  ALT: 40.2 IU/L
  AST: 70.2 IU/L
  BUN: 13.8 mg/dL
  CRE: 0.2 mg/dL
  Ca: 10.7 mg/dL
  Cl: 103.8 meq/L
  DBIL: 0.01 mg/dL
  GLC: 182 mg/dL
  IP: 7.5 mg/dL
  K: 3.9 meq/L
  LDH: 84.2 IU/L
  Na: 140.6 meq/L
  PL: 142.4 mg/dL
  RALB: 2.6 g/dL
  TBIL: 0.056 mg/dL
  TC: 72.2 mg/dL
  TG: 101.8 mg/dL
  TP: 5.6 g/dL
  gamma-GTP: 1 IU/L
[6]
  TERMINAL_BW: 267.4 g
  APTT: 17.6 s
  Bas: 0%
  Eos: 1%
  Fbg: 291.8 mg/dL
  Hb: 13.8 g/dL
  Ht: 40.9%
  Lym: 73.6%
  MCH: 21.2 pg
  MCHC: 33.6%
  MCV: 63 fL
  Mono: 3%
  Neu: 21.6%
  PT: 12.9 s
  Plat: 130.6 x10_4/uL
  RBC: 649.8 x10_4/ul
  Ret: 6.1%
  WBC: 81.1 x10_2/uL
  KIDNEY_L: 1.1 g
  KIDNEY_R: 1.1 g
  KIDNEY_TOTAL: 2.2 g
  LIVER: 12.2 g
  A/G: 0.9
  ALP: 1544.4 IU/L
  ALT: 44 IU/L
  AST: 73.2 IU/L
  BUN: 15.8 mg/dL
  CRE: 0.2 mg/dL
  Ca: 10.9 mg/dL
  Cl: 104.2 meq/L
  DBIL: 0.008 mg/dL
  GLC: 176.4 mg/dL
  IP: 7.4 mg/dL
  K: 3.8 meq/L
  LDH: 76.8 IU/L
  Na: 141.8 meq/L
  PL: 148.4 mg/dL
  RALB: 2.6 g/dL
  TBIL: 0.052 mg/dL
  TC: 74.6 mg/dL
  TG: 103.6 mg/dL
  TP: 5.7 g/dL
  gamma-GTP: 0.8 IU/L
[7]
  TERMINAL_BW: 335.4 g
  APTT: 17.6 s
  Bas: 0%
  Eos: 1.4%
  Fbg: 290.2 mg/dL
  Hb: 14.9 g/dL
  Ht: 44.1%
  Lym: 80.6%
  MCH: 20.7 pg
  MCHC: 33.7%
  MCV: 61.4 fL
  Mono: 2.6%
  Neu: 15%
  PT: 13.2 s
  Plat: 126.6 x10_4/uL
  RBC: 719.2 x10_4/ul
  Ret: 4.4%
  WBC: 98.7 x10_2/uL
  KIDNEY_L: 1.3 g
  KIDNEY_R: 1.3 g
  KIDNEY_TOTAL: 2.6 g
  LIVER: 15.3 g
  A/G: 0.8
  ALP: 1438.4 IU/L
  ALT: 36.2 IU/L
  AST: 62.8 IU/L
  BUN: 16 mg/dL
  CRE: 0.2 mg/dL
  Ca: 10.9 mg/dL
  Cl: 104.2 meq/L
  DBIL: 0.01 mg/dL
  GLC: 182 mg/dL
  IP: 6.7 mg/dL
  K: 4.2 meq/L
  LDH: 119.4 IU/L
  Na: 141.8 meq/L
  PL: 153.4 mg/dL
  RALB: 2.7 g/dL
  TBIL: 0.052 mg/dL
  TC: 75.4 mg/dL
  TG: 146.8 mg/dL
  TP: 6 g/dL
  gamma-GTP: 1 IU/L
[8]
  TERMINAL_BW: 407.8 g
  APTT: 18.7 s
  Bas: 0%
  Eos: 1%
  Fbg: 301 mg/dL
  Hb: 15.3 g/dL
  Ht: 44%
  Lym: 78.8%
  MCH: 19.6 pg
  MCHC: 34.7%
  MCV: 56.4 fL
  Mono: 1.4%
  Neu: 17.4%
  PT: 13.3 s
  Plat: 103.6 x10_4/uL
  RBC: 780.8 x10_4/ul
  Ret: 2.4%
  WBC: 101.5 x10_2/uL
  KIDNEY_L: 1.5 g
  KIDNEY_R: 1.4 g
  KIDNEY_TOTAL: 2.9 g
  LIVER: 16.8 g
  A/G: 0.8
  ALP: 1221 IU/L
  ALT: 36.8 IU/L
  AST: 66.2 IU/L
  BUN: 17 mg/dL
  CRE: 0.2 mg/dL
  Ca: 10.8 mg/dL
  Cl: 104.8 meq/L
  DBIL: 0.018 mg/dL
  GLC: 179.8 mg/dL
  IP: 6.4 mg/dL
  K: 4.1 meq/L
  LDH: 79.6 IU/L
  Na: 142.4 meq/L
  PL: 149.2 mg/dL
  RALB: 2.8 g/dL
  TBIL: 0.056 mg/dL
  TC: 70 mg/dL
  TG: 156 mg/dL
  TP: 6.2 g/dL
  gamma-GTP: 1 IU/L
